Molecules are shown by their SMILES. Some results are limits rather than exact numbers.

The term IC50 denotes the midpoint of a concentration-inhibition curve.

Experiment [1] addresses Cyclin-dependent kinase 1 (Homo sapiens, UniProt P06493). The experiment can be described thus: Inhibition of CDK1 (unknown origin) assessed as inhibition of phosphate incorporation into substrate in presence of radiolabeled ATP.
For experiment [2], the target named is Cyclin-dependent kinase 5 (Homo sapiens, UniProt Q00535). Briefly: Inhibition of CDK5 (unknown origin) assessed as inhibition of phosphate incorporation into substrate in presence of radiolabeled ATP.
For experiment [3], the target named is Dual specificity tyrosine-phosphorylation-regulated kinase 1A (Homo sapiens, UniProt Q13627). Briefly: Inhibition of DYRK1A (unknown origin) assessed as inhibition of phosphate incorporation into substrate in presence of radiolabeled ATP.
For experiment [4], the target named is Glycogen synthase kinase-3 (Homo sapiens, UniProt P49840+P49841). Briefly: Inhibition of GSK3 (unknown origin) assessed as inhibition of phosphate incorporation into substrate in presence of radiolabeled ATP. Type of experiment: protein assay.
In experiment [5] the test system is Casein kinase 1 delta/epsilon (Sus scrofa). Briefly: Inhibition of CK1 (porcine brain) assessed as inhibition of phosphate incorporation into substrate in presence of radiolabeled ATP.
Experiment [6] concerns the target Dual specificity protein kinase CLK1 (Mus musculus) (UniProt P22518). The experiment can be described thus: Inhibition of CLK1 (mouse recombinant) assessed as inhibition of phosphate incorporation into substrate in presence of radiolabeled ATP.
Experiment [7] deals with Dual specificity protein kinase CLK1 (Mus musculus, UniProt P22518). Briefly: Inhibition of mouse recombinant GST-fused CLK1 expressed in Escherichia coli cells assessed as inhibition of phosphate incorporation using GRSRSRSRSRSR and [gamma-33P]ATP as substrate after 30 mins by scintillation counting analysis.
Experiment [8] deals with Dual specificity tyrosine-phosphorylation-regulated kinase 1A (Rattus norvegicus, UniProt Q63470). The experiment can be described thus: Inhibition of rat DYRK1A assessed as inhibition of phosphate incorporation using GRSRSRSRSRSR and [gamma-33P]ATP as substrate after 30 mins by scintillation counting analysis.
Experiment [9] in a line: Inhibition of CDK1/cyclin B in starfish oocytes assessed as inhibition of phosphate incorporation using histone 1 and [gamma-33P]ATP as substrate after 30 mins by scintillation counting analysis. Also on record: species or system Patiria pectinifera.
The target of experiment [10] is CDK2/Cyclin A2 (Homo sapiens, UniProt P24941). The experiment can be described thus: Inhibition of CDK2/cyclin A (unknown origin). Type of experiment: protein-complex assay.
The target of experiment [11] is Cyclin-dependent kinase 5/CDK5 activator 1 (Homo sapiens, UniProt Q00535). Briefly: Inhibition of CDK5/p25 (unknown origin) assessed as inhibition of phosphate incorporation using histone 1 and [gamma-33P]ATP as substrate after 30 mins by scintillation counting analysis. Type of experiment: protein-complex assay.
In experiment [12] the target is CDK9/cyclin T1 (Homo sapiens, UniProt P50750). Briefly: Inhibition of CDK9/cyclin T (unknown origin). Type of experiment: protein-complex assay.
Experiment [13] can be described thus: Inhibition of CK1 delta/epsilon in porcine brain assessed as inhibition of phosphate incorporation using RRKHAAIGpSAYSITA and [gamma-33P]ATP as substrate after 30 mins by scintillation counting analysis. Set-up: species or system Sus scrofa.
Experiment [14] has as its target Dual specificity protein kinase CLK2 (Homo sapiens, UniProt P49760). The experiment can be described thus: Inhibition of CLK2 (unknown origin).
In experiment [15] the target is Dual specificity protein kinase CLK3 (Homo sapiens, UniProt P49761). Briefly: Inhibition of CLK3 (unknown origin).
In experiment [16] the target is Dual specificity protein kinase CLK4 (Homo sapiens, UniProt Q9HAZ1). Briefly: Inhibition of CLK4 (unknown origin).
Experiment [17] has as its target Dual specificity tyrosine-phosphorylation-regulated kinase 1B (Homo sapiens, UniProt Q9Y463). Briefly: Inhibition of DYRK1B (unknown origin).
Experiment [18] deals with T1, Dual specificity tyrosine-phosphorylation-regulated kinase 2 (Homo sapiens, UniProt Q92630).
T1 sequence (Q92630 whole entry): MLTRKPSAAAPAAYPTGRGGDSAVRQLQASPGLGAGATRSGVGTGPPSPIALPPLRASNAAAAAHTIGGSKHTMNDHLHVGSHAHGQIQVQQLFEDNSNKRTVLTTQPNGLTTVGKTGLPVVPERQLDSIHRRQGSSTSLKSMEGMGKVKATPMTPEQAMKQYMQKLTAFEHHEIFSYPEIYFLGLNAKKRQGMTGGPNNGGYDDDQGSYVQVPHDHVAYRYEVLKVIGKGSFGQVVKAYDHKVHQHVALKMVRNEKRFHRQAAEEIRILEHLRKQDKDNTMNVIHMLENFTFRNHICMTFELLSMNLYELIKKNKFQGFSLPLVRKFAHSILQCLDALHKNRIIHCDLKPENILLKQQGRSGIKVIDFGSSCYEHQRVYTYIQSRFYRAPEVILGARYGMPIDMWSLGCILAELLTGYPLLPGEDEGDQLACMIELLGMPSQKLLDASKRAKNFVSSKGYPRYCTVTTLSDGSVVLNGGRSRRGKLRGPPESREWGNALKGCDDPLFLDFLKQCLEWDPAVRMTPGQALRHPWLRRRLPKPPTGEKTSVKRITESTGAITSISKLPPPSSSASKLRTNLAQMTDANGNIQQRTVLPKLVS
The experiment can be described thus: Inhibition of DYRK2 (unknown origin).

Experiment [19] deals with T2, Dual specificity tyrosine-phosphorylation-regulated kinase 3 (Homo sapiens, UniProt O43781).
T2 sequence (O43781 whole entry): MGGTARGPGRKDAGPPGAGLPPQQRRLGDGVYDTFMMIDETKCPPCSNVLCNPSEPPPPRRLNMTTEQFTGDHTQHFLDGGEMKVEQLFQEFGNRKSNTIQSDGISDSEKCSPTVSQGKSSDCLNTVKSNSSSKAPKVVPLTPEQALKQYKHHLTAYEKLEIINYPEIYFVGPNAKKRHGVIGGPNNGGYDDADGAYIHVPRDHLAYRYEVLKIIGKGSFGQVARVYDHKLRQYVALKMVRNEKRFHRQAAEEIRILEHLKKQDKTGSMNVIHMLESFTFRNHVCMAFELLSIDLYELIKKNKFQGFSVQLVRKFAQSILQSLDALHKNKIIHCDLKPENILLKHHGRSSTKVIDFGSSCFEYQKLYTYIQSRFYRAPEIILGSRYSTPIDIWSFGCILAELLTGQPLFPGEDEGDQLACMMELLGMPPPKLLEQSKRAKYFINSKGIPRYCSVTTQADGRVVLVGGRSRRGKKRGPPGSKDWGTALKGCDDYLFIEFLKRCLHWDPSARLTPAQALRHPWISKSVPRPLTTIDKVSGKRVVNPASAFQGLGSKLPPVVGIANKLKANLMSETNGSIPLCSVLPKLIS
The experiment can be described thus: Inhibition of DYRK3 (unknown origin).

For experiment [20], the target named is Glycogen synthase kinase-3 (Sus scrofa, UniProt B2LUN4+I6LNT8). The experiment can be described thus: Inhibition of GSK3 alpha/beta in porcine brain assessed as inhibition of phosphate incorporation using YRRAAVPPSPSLSRHSSPHQSpEDEEE and [gamma-33P]ATP as substrate after 30 mins by scintillation counting analysis.

Chain of Cyclin-dependent kinase 5 (Q00535 whole entry): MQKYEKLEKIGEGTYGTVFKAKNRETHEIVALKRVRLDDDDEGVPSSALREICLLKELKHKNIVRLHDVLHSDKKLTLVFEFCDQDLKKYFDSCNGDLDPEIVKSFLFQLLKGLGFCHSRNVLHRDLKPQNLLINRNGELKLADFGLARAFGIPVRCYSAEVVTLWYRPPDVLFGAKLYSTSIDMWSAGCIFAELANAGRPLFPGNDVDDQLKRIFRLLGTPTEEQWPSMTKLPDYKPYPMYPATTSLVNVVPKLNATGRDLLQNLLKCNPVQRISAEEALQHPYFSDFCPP
Chain of Dual specificity protein kinase CLK1 (Mus musculus) (P22518 whole entry, looked up, the tested form may be a part): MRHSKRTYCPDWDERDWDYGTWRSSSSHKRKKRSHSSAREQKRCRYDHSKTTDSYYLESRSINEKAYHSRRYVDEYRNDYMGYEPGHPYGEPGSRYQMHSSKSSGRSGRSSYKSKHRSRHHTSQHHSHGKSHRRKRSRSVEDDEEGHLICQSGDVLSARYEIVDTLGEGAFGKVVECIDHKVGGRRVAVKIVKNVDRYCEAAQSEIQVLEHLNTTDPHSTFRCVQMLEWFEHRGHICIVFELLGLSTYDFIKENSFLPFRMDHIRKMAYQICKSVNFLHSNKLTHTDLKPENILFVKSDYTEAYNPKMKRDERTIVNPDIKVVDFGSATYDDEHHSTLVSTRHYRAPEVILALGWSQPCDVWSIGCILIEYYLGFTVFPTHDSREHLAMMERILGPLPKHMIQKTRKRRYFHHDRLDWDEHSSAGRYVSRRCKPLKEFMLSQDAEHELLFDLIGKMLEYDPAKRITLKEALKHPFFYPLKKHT
Chain of Cyclin-dependent kinase 1 (P06493 whole entry): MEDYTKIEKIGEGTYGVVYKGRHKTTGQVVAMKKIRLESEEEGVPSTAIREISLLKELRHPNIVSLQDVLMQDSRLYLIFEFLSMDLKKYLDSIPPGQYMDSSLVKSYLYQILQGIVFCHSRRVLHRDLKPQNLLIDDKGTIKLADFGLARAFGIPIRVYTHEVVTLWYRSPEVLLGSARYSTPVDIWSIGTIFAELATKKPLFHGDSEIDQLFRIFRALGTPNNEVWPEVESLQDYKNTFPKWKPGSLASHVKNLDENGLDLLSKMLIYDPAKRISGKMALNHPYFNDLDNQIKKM
Chain of Cyclin-dependent kinase 5/CDK5 activator 1 (Q00535 whole entry): as the sequence (Q00535 whole entry) above
Chain of Cyclin-dependent kinase 5/CDK5 activator 1 (Q15078 whole entry, further chain): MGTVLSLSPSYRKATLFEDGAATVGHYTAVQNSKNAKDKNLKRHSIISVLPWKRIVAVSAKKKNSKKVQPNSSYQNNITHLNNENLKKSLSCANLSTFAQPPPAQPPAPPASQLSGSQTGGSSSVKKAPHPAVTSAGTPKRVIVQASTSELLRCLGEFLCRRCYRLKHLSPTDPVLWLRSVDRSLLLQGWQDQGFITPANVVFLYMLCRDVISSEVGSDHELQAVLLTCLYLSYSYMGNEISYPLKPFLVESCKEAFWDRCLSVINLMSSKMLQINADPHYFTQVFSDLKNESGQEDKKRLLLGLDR
Chain of Dual specificity protein kinase CLK1 (P22518 whole entry, the tested form may be a part): as the sequence (P22518 whole entry, looked up, the tested form may be a part) above
Chain of Dual specificity tyrosine-phosphorylation-regulated kinase 1B (Q9Y463 whole entry): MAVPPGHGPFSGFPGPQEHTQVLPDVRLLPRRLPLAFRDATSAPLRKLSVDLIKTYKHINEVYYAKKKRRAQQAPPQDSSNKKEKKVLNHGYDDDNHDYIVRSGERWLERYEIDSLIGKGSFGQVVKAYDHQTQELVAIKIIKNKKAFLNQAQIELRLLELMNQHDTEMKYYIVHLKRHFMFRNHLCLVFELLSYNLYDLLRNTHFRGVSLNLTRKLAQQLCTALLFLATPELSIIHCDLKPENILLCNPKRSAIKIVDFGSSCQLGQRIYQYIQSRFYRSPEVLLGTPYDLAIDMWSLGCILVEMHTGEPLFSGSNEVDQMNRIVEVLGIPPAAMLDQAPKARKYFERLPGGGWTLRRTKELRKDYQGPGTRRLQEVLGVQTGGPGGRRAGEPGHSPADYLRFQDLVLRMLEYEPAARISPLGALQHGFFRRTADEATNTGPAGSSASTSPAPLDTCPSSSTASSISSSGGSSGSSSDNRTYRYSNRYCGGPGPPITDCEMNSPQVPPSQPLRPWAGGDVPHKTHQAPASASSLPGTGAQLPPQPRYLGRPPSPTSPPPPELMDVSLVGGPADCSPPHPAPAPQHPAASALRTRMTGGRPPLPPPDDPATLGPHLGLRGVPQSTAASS
Chain of Dual specificity protein kinase CLK3 (P49761 whole entry): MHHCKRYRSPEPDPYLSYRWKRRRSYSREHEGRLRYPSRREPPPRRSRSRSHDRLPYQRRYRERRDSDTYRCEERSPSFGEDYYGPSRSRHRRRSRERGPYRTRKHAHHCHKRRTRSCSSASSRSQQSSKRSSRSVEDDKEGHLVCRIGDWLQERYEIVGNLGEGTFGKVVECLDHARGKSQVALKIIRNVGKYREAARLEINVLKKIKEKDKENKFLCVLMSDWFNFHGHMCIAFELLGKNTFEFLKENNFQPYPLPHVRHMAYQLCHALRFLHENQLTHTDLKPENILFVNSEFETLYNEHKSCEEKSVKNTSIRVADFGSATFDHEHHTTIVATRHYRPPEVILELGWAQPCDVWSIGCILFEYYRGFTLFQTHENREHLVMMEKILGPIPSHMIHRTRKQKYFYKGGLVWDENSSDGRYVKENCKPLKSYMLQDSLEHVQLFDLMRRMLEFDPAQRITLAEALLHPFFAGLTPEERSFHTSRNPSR
Chain of Dual specificity protein kinase CLK4 (Q9HAZ1 whole entry): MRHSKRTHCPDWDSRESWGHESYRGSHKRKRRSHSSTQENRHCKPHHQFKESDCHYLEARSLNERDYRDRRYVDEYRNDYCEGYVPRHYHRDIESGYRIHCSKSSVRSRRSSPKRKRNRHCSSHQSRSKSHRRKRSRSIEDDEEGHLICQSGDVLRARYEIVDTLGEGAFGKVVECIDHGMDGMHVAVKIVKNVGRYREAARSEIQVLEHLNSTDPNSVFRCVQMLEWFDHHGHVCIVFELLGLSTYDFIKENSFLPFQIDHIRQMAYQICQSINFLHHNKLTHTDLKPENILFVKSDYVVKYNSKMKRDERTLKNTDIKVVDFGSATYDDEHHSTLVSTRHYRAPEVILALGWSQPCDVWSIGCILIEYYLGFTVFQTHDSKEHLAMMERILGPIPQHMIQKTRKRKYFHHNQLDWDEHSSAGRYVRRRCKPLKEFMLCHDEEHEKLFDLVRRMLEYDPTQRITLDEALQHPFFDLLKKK
Chain of Dual specificity protein kinase CLK2 (P49760 whole entry): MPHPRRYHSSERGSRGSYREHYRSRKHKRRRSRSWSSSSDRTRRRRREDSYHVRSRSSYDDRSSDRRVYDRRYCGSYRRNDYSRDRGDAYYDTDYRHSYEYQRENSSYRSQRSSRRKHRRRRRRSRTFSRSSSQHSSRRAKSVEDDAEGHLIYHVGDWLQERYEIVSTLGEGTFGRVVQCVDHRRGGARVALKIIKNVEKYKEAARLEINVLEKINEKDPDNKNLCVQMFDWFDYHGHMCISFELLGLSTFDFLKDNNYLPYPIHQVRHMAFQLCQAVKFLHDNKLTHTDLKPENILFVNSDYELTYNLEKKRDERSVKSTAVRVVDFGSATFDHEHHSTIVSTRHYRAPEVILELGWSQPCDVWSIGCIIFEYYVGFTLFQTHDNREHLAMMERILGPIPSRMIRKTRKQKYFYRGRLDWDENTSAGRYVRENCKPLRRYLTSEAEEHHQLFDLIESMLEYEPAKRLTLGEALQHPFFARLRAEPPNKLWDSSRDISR
Chain of CDK9/cyclin T1 (O60563 whole entry): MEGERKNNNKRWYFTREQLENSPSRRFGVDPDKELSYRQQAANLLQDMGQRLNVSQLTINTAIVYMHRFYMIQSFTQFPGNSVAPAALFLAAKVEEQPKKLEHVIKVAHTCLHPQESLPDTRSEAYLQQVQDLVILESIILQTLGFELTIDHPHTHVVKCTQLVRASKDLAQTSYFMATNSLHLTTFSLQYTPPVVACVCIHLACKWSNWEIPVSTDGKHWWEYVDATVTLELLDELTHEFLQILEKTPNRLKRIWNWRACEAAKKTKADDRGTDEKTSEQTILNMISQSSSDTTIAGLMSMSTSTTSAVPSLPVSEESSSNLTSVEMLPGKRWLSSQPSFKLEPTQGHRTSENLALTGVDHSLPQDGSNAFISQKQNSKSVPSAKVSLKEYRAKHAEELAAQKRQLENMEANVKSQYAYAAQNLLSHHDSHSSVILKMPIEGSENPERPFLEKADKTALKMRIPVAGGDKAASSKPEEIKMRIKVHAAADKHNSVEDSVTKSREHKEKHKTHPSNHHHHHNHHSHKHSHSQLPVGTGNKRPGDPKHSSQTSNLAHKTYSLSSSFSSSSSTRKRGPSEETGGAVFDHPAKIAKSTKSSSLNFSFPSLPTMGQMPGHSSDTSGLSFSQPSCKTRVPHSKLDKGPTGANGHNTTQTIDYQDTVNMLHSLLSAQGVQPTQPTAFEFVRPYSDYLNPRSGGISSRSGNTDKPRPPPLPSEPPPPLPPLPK
Chain of CDK9/cyclin T1 (P50750 whole entry): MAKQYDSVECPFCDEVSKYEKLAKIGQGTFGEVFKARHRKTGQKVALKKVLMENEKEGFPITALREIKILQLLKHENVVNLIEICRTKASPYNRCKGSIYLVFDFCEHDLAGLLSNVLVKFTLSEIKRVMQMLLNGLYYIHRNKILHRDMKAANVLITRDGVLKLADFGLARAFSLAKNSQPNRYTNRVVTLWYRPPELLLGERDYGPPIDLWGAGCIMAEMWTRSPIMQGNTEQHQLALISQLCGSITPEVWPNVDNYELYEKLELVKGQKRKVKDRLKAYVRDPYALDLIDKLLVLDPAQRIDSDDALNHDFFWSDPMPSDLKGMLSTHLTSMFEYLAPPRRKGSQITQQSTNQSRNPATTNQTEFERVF

Consider `Cn1c2c(O)cccc2c(=O)c2c3c(c4c(c21)C=CC(C)(C)O4)C=C(O)C(C)(C)O3`, for which the IC50 in experiment [1] is more than 10 µM; in experiment [2] it was more than 10 µM; in experiment [3], more than 10000 nM; in [4] it was more than 10 µM; in experiment [5], more than 10 µM; in [6] it was more than 10 µM.

As for `Cn1c2c(O)cccc2c(=O)c2c3occc3c3c(c21)C=CC(C)(C)O3`, the half-maximal inhibitory concentration (IC50) is more than 10 µM in experiment [1]; more than 10 µM in experiment [2]; 5700 nM in [3]; more than 10 µM in experiment [4]; more than 10 µM in experiment [5]; 7 µM in [6].

In the case of `COc1c(O)ccc2c(=O)c3c(O)cc4c(c3[nH]c12)C=CC(C)(C)O4`, the half-inhibitory concentration (IC50) in [1] turned out to be 5.3 µM; in experiment [2], 9 µM; in [3] it was 75 nM; in experiment [7] it was 210 nM; in experiment [8] it was 90 nM; in [4], 2 µM. For the same compound, the IC50 in [9] is 1100 nM; in experiment [10] it was 8.2 µM; in experiment [11], more than 10 µM; in [12], 820 nM; in experiment [13], 8.7 µM; in experiment [14], 680 nM. For the same compound, the IC50 in [15] was determined as 2300 nM; in experiment [16], 220 nM; in experiment [17] it was 350 nM; in experiment [18], 1700 nM; in experiment [19], 1200 nM; in [20], 0.71 µM. In addition, the figures for the IC50 in [5] and in experiment [6] were more than 10 µM and 0.17 µM, respectively.

On to `O=C1Nc2cc(Br)ccc2/C1=C1/Nc2ccccc2/C1=N\O` [6BIO], for which the IC50 in experiment [3] was 52 nM.

Take `CC1(C)C=Cc2c(cc(O)c3c(=O)c4cccc(O)c4[nH]c23)O1` [ATOLAPHYLLIDINE]: the 50% inhibitory concentration (IC50) in [1] was more than 10 µM; in experiment [2] it was more than 10 µM; in experiment [3], 2200 nM; in [4], more than 10 µM; in experiment [5], more than 10 µM; in experiment [6], not below 10 µM.

The record behind these values is ChEMBL document CHEMBL3297725, “Acridone alkaloids from Glycosmis chlorosperma as DYRK1A inhibitors” (J Nat Prod, 2014).
